Data reported in ChEMBL document CHEMBL6134921, “Novel Tetrahydrobenzo[b]pyrazolo[3,4-e][1,4]diazepine Compounds as Oxytocin Receptor Agonists for Treating Autism Spectrum Disorders” (ACS Med Chem Lett, 2025).

Columns and labels:
[1] = molecular target: Vasopressin V1a receptor (Homo sapiens, UniProt P37288); test: Antagonist activity at V1A receptor (unknown origin) by calcium signal assay; format: functional
[2] = molecular target: T1, Oxytocin receptor (Homo sapiens, UniProt P30559); test: Agonist activity at oxytocin receptor (unknown origin) expressed in CHO cells by IP-1 accumulation assay; format: functional, cell-based
T1 sequence (P30559 whole entry): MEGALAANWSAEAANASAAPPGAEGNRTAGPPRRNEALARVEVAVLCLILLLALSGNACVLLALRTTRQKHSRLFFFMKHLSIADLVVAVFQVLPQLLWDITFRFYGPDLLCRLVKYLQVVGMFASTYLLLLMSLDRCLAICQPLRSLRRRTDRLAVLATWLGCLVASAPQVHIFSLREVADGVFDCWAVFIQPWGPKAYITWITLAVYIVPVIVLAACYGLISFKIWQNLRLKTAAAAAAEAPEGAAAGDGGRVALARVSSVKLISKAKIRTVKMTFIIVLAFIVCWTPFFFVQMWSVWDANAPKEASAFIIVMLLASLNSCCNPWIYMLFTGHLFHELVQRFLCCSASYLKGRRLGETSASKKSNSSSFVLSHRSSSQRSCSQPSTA

[3] = Selectivity ratio, IC50 for antagonist activity at V1A receptor (unknown origin) to EC50 for agonist activity at oxytocin receptor (unknown origin) expressed in CHO cells; format: cell-based

Chain of Vasopressin V1a receptor (P37288 whole entry): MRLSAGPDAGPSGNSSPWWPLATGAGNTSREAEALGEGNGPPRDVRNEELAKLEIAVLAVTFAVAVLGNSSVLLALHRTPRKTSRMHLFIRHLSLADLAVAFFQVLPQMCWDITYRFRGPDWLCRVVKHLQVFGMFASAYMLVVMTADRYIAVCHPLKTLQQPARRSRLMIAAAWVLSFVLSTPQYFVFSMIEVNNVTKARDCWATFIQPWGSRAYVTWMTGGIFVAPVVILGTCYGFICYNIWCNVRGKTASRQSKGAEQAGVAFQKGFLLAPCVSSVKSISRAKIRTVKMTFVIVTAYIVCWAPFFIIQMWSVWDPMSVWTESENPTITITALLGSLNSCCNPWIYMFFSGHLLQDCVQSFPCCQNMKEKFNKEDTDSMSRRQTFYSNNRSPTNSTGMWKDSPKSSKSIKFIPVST

IC50 [1] [nM] | EC50 [2] [nM] | SMILES | Ratio IC50/EC50 [3]
393 | 0.26 | Cc1cc(C(=O)N2Cc3cnn(C)c3Nc3ccccc32)ccc1CNC(=O)N1C[C@H](n2cc(CC3NC(=O)NC3=O)nn2)C[C@H]1C(=S)N(C)C (some centres undefined) | 1510
– | 0.55 | Cc1cc(C(=O)N2Cc3cnn(C)c3Nc3ccccc32)ccc1CNC(=O)N1C[C@H](n2cc(COCCF)nn2)C[C@H]1C(=S)N(C)C | –
700 | 0.14 | Cc1cc(C(=O)N2Cc3cnn(C)c3Nc3ccccc32)ccc1CNC(=O)N1C[C@@H](n2cc(CO)nn2)C[C@H]1C(=S)N(C)C | 5000
966 | 0.15 | Cc1cc(C(=O)N2Cc3cnn(C)c3Nc3ccccc32)ccc1CNC(=O)N1C[C@H](n2cc(CO)nn2)C[C@H]1C(=S)N(C)C | 6450
> 10000 | 1.95 | Cc1cc(C(=O)N2Cc3cnn(C)c3Nc3ccccc32)ccc1CNC(=O)N1C[C@H](n2cc(CCc3nnn[nH]3)nn2)C[C@H]1C(=S)N(C)C | > 5000
– | 0.31 | Cc1cc(C(=O)N2Cc3cnn(C)c3Nc3ccccc32)ccc1CNC(=O)N1C[C@H](n2cc(CF)nn2)C[C@H]1C(=S)N(C)C | –
